Experimental data published in patent publication US20200181284A1, “EPIGENETIC INHIBITORS FOR SENSITIZING HEMATOLOGIC OR OTHER MALIGNANCIES TO GLUCOCORTICOID THERAPY” (UNIVERSITY OF SOUTHERN CALIFORNIA, priority 2017, published 2020).

Tests used:
[1] = test system: NALM6 cells; assay: Cell death assay (Presto Blue, 72 h) with dex plus inhibitor; assay type: cell-based, human
Protocol: Cells were plated in CellStar low evaporation lid 96-well round-bottom plate at a density of 100,000 cells/ml. Directly after plating, cells were treated in triplicate with serial dilutions of dexamethasone or vehicle control (0.1% ethanol). After 72 h, cell viability of each well was analyzed in duplicate using the Presto Blue Assay Reagent (Life Technologies). Fluorescence was measured and data were analyzed with Prism6 software.
(§1) FIGS. 40A, 40B, 40C, 40D-1, 40D-2, 40D-3, and 40D-4 show Aurora kinase B inhibitors sensitizing NALM6 cells to GC-induced cell death. As shown in FIGS. 40A and 40B, NALM6 cells were treated with the indicated dex concentration in addition to 0.75 μM ZM447439 (FIG. 40A), 16 nM AZD2811 (FIG. 40B), or equivalent volume of vehicle DMSO for 72 h, and cell survival was measured by a fluorescence metabolic assay. In each condition, the value measured with dex was normalized to the fluorescence value measured with ethanol. Percentage of survival is shown as the mean±SEM of 4 independent experiments and p-values for individual dex concentrations were calculated using a paired t-test. *p≤0.05, **p≤0.01, * * *p≤0.001. F-test comparing the two curves: p≤0.001. Insets show the EC50s that were calculated as the concentration at which half the cells remained alive, compare to vehicle controls. Error bars depict the SEM of 4 independent experiments and p-values were calculated to compare AURKB inhibitor treatment to DMSO using a paired t-test ** p≤0.01, * * *p≤0.001. […] The indicated proteins were then examined by immunoblot. As shown in FIGS. 40D-1, 40D-2, 40D-3, and 40D-4, NALM6 cells pre-treated with AZD2811 (16 nM) or DMSO for 24 h, were then treated for 8 h with 100 nM dex or ethanol. mRNA levels for the indicated GR target genes were measured by RT-qPCR and normalized to β-actin mRNA levels.
FIGS. 48A, 48B, 48C, 48D, 48E, and 48F show the effect of AURKB inhibitors on EHMT2 phosphorylation and dex-induced cell death. […] In each condition, the value measured with dex was normalized to the fluorescence value measured with ethanol. Percentage of survival is shown as the mean±SEM of 4 independent experiments and p-values for individual dex concentrations were calculated using a paired t-test. *p≤0.05, **p≤0.01, * * *p≤0.001. F-test comparing the two curves: p≤0.001. EC50s were calculated as the concentration at which half the cells remained alive, compare to vehicle controls. Error bars depict the SEM of 4 independent experiments and p-value was calculated to compare ZM treatment to DMSO using a paired t-test **p≤0.01, * * *p≤0.001. […] EC50s were calculated as the concentration at which half the cells remained alive, compare to vehicle controls. Error bars depict the SEM of 4 independent experiments and p-value was calculated to compare alisertib treatment to DMSO using a paired t-test. […] (E-F) RCH-ACV cells were treated with the indicated dex concentration in addition to 0.75 μM ZM447439 (FIG. 48E), 16 nM AZD2811 (FIG. 48F), or DMSO for 72 h, and cell survival was measured by a fluorescence metabolic assay. In each condition, the value measured with dex was normalized to the fluorescence value measured with ethanol. Percentage of survival is shown as the mean±SEM of 5 individual experiments and the p-value for each dex concentration was calculated using a paired t-test. *p≤0.05, **p≤0.01, * * *p≤0.001. F-test comparing the two curves: p≤0.001.
FIGS. 55A, 55B, and 55C show JIB-04 enhances GC-induced death of B-ALL cell line NALM6.

[2] = test system: EHMT2 phosphorylation; assay: Phosphorylation of EHMT2 in NALM-6 cells (pan ph-T immunoprecipitation, EHMT2 immunoblot); assay type: cell-based, human; details: NALM-6, 16 nM AZD2811, 24 h
Protocol: (§2) Cells were treated as indicated, and cell extracts were prepared in RIPA buffer ([…] Tris-HCl, pH 8, 150 mM NaCL, 1 mM EDTA, 1% NP-40, and 0.25% deoxycholate) supplemented with protease inhibitor tablets (Roche Molecular Biochemicals) and phosphatase inhibitors (1 mM NaF, 1 mM Na3VO4, and 1 mM β-glycerophosphate). Protein extracts were incubated overnight at 4° C. with shaking with 1 μg of antibodies against EHMT2 (Sigma G6919), EHMT1 (Millipore 09-078), or pan phospho-threonine (Millipore AB1607). Protein A/G plus agarose beads (Santa Cruz sc-2003) were added, and the mixture was incubated 2 h at 4° C. The immunoprecipitates were separated on SDS-PAGE. […]
FIGS. 48A, 48B, 48C, 48D, 48E, and 48F show the effect of AURKB inhibitors on EHMT2 phosphorylation and dex-induced cell death. […] In each condition, the value measured with dex was normalized to the fluorescence value measured with ethanol. Percentage of survival is shown as the mean±SEM of 4 independent experiments and p-values for individual dex concentrations were calculated using a paired t-test. *p≤0.05, **p≤0.01, * * *p≤0.001. […] EC50s were calculated as the concentration at which half the cells remained alive, compare to vehicle controls. Error bars depict the SEM of 4 independent experiments and p-value was calculated to compare ZM treatment to DMSO using a paired t-test **p≤0.01, * * *p≤0.001. […]

[3] = test system: NALM6 cells; assay: Immunoblot of apoptosis markers (cleaved caspase 3, caspase 7, PARP1) in NALM6 cells; assay type: cell-based, human; details: 16 nM AZD2811 pretreatment 24 h, then 100 nM dex 24 h
Protocol: as §2
FIGS. 40A, 40B, 40C, 40D-1, 40D-2, 40D-3, and 40D-4 show Aurora kinase B inhibitors sensitizing NALM6 cells to GC-induced cell death. As shown in FIGS. 40A and 40B, NALM6 cells were treated with the indicated dex concentration in addition to 0.75 μM ZM447439 (FIG. 40A), 16 nM AZD2811 (FIG. 40B), or equivalent volume of vehicle DMSO for 72 h, and cell survival was measured by a fluorescence metabolic assay. In each condition, the value measured with dex was normalized to the fluorescence value measured with ethanol. Percentage of survival is shown as the mean±SEM of 4 independent experiments and p-values for individual dex concentrations were calculated using a paired t-test. *p≤0.05, **p≤0.01, * * *p≤0.001. […]

[4] = test system: GR target genes in NALM6 cells; assay: RT-qPCR of GR target genes in NALM6 cells; assay type: cell-based, human; details: NALM6, 16 nM AZD2811 24 h, then 100 nM dex 8 h
Protocol: RNA was isolated using TRIzol (Invitrogen) according to the manufacturer's instructions. Reverse transcription reaction was performed using Superscript III (ThermoFisher) according to specifications with 1 μg of total RNA as template. Quantitative PCR amplification of the resulting cDNA was performed on a Roche LightCycler 480 using SYBR green I master mix (Roche). mRNA levels were normalized to the level of b-actin mRNA.
as §1
FIGS. 54A, 54B, and 54C highlight the GR Target genes that require G9a and GLP as coactivators.

[5] = test system: LAX7R and LAX56 primary human B-ALL cells; assay: Survival of primary B-ALL cells co-cultured with OP-9 feeder cells (Annexin V/7AAD); assay type: cell-based
Protocol: Primary ALL cells (LAX7R and LAX56) were established from mouse xenografts derived from patient samples (Adam et al., 2017; Hsieh et al., 2013). They were cultured in 24 well tissue-culture plates on irradiated OP-9 cells with growth medium containing MEM-α with 20% heat-inactivated fetal bovine serum, and 100 IU/ml penicillin and 100 μg/ml streptomycin. On day 3 and day 5 after the addition of drugs, ALL cells were collected, and apoptosis was assessed using PE Annexin V Apoptosis Detection Kit with 7-AAD.
As shown FIGS. 41A-1, 41A-2, 41B-1, and 41B-2, LAX7R (FIGS. 41A-1 and 41A-2) or LAX56 (FIGS. 41B-1 and 41B-2) primary human B-ALL cells were co-cultured with OP-9 feeder cells for 3 days (left) or 5 days (right) in the presence of the indicated drugs, and cell survival was determined by staining with Annexin/7AAD. p-value was calculated using a paired t-test, and different symbols were used to indicate p-values between different groups.+indicates statistical significance (+p≤0.05, ++p≤0.01 and + + + p≤0.001) between Dexamethasone or AZD2811 treated group and DMSO control group; # indicates statistical significance (#p≤0.05, ##p≤0.01 and # # # p≤0.001) between AZD2811+Dexamethasone combination group and AZD2811 group; * indicates statistical difference (*p≤0.05, **p≤0.01, * * *p≤0.001) between combination group and respective Dexamethasone treated groups. Values shown are mean and SD for 3 biological replicates, which are representative of 3 independent experiments.

[6] = test system: G9a methylation; assay: G9a methylation level in NALM6 cells treated with KDM inhibitors; assay type: cell-based, human
Description: There are two distinct families of KDM with distinct catalytic mechanisms (FIG. 50B). We tested one inhibitor for each family: OG-L002 inhibits the two members of the LSD family of KDM, and JIB-04 inhibits several members of the large JmjC family of KDM, including members of the KDM2, KDM3, and KDM4 subfamilies. We propose that there is an equilibrium between the enzymes that methylate G9a and GLP (in this case they methylate themselves) and the KDM enzymes to maintain a moderate level of G9a/GLP methylation (FIGS. 50C-1, 50C-2), and that inhibition of the KDMs that normally demethylate G9a and GLP (currently unknown) will increase the level of G9a/GLP methylation and thereby enhance the coactivator activity of G9a/GLP, the GC activation of the cell death genes, and GC-induced cell death in B-ALL cells. Thus, as a first step to identify the G9a/GLP-specific demethylases, we treated NALM6 cells with the two inhibitors named above. OG-L002 had no effect on the level of G9a methylation, but JIB-04 increased the level of G9a methylation in NALM6 cells (FIG. 50D).

Row | Structure (SMILES) | dex-induced cell death ([1]; NALM6, 16 nM AZD2811, 72 h) | phosphorylation of EHMT2 [2] | cleavage of apoptotic markers in dex-treated NALM6 [3] | dex-induced expression of dex-effector genes that utilize EHMT2, EHMT1 and CBX3 [4] | cell survival compared with the vehicle-treated control ([5]; 16 nM AZD2811 alone, 3 or 5 days) | cell survival ([5]; 16 nM AZD2811 in combination with 0.1 nM dex, 3 or 5 days) | dex sensitivity of the two dex-resistant primary B-ALL lines ([5]; 16 nM AZD2811 with dex) | GC-induced death of NALM6 cells ([1]; 72 hours with various dex concentrations plus KDM inhibitor) | level of G9a methylation [6]
1 | CCN(CCO)CCCOc1ccc2c(Nc3cc(CC(=O)Nc4cccc(F)c4)[nH]n3)ncnc2c1 [AZD2811] | enhanced | decreased | increased | enhanced | 70-80% | 10-40% | dramatically enhanced | – | –
2 | N[C@H]1C[C@@H]1c1ccc(-c2cccc(O)c2)cc1 [OG-L002, 3-[4-[(1R,2S)-2-aminocyclopropyl]phenyl]phenol] | – | – | – | – | – | – | – | no effect | no effect
